The source of these data is patent publication US20140378408A1, “NUCLEOSIDE 5'-PHOSPHOROTHIOATE ANALOGUES AND USES THEREOF” (BAR-ILAN UNIVERSITY, an Israeli University, priority 2012, published 2014).

Like-named read-outs stand apart in the source and are kept apart here.

One data set has as its target T1, Aβ28-Cu^+ complex (Homo sapiens, UniProt P05067).
T1 construct: we first studied Aβ28, as a more soluble fragment of Aβ40; purchased Sigma-Aldrich
In words: Titration of Aβ28-Cu^+ complex by chelators monitored by 1H-NMR. To be noted: 0.8 mM Aβ28-Cu^+, pD 7.

In another data set the test system is PC12 cells. In words: Stability of nucleotides in PC12 cells.
Another data set has as its system cortical neurons. Kind of data set: Neuroprotection of cultured cortical neurons exposed to FeSO4 or FeSO4/H2O2. In kind it is cell-based. The procedure:
FIGS. 10A-10B show the neuroprotective effect of ATP-γ-S and GDP-β-S (0.2-200 μM, t=24 h) as evaluated by MTT production in cortical neurons exposed for 24 h to either FeSO4 at final concentration of 3 μM (10A); or both FeSO4 (3 μM) and H2O2 (100 μM) (10B). The results shown are the mean±SEM of three independent experiments in quadruplicate.
Cultured cortical neurons in 96-well plates were treated with different concentrations of FeSO4, or hydrogen peroxide and FeSO4, for 24 h at 37° C. Following exposure to various insults, the cells were treated with ATP-γ-S and GDP-β-S as described. Cells were subsequently incubated for a further 18-24 h as indicated before being assessed for viability measures. Neurons were treated with ATP-γ-S and GDP-β-S at three concentrations ([…]) simultaneously with 1.5, 3 or 6 μM FeSO4 for 24 h. Following 24 h incubation in the presence of both FeSO4 and ATP-γ-S and GDP-β-S cell viability measures were assessed by XTT assay. All experiments were performed in triplicate.
FeSO4 induced a concentration-dependent decrease in cell viability as assessed by XTT assay and morphological assessment following 24 h of exposure (FIG. 9). The neuroprotective effect of ATP-γ-S and GDP-β-S (due to iron chelation) was evaluated in cortical neurons exposed to FeSO4 for 24 h (FIG. 10).

Data set [1] is described as follows: Affinity to Zn^2+ ions (log K). In kind it is physicochemical.
Data set [2] deals with T2, NPP1 from matrix vesicles (MVs) (Homo sapiens, UniProt P22413).
T2 construct: Its hydrolysis by endogenous enzyme (NPP1) from matrix vesicles (MVs); from tissue; host or cells: matrix vesicles (MVs)
T2 sequence (P22413 whole entry): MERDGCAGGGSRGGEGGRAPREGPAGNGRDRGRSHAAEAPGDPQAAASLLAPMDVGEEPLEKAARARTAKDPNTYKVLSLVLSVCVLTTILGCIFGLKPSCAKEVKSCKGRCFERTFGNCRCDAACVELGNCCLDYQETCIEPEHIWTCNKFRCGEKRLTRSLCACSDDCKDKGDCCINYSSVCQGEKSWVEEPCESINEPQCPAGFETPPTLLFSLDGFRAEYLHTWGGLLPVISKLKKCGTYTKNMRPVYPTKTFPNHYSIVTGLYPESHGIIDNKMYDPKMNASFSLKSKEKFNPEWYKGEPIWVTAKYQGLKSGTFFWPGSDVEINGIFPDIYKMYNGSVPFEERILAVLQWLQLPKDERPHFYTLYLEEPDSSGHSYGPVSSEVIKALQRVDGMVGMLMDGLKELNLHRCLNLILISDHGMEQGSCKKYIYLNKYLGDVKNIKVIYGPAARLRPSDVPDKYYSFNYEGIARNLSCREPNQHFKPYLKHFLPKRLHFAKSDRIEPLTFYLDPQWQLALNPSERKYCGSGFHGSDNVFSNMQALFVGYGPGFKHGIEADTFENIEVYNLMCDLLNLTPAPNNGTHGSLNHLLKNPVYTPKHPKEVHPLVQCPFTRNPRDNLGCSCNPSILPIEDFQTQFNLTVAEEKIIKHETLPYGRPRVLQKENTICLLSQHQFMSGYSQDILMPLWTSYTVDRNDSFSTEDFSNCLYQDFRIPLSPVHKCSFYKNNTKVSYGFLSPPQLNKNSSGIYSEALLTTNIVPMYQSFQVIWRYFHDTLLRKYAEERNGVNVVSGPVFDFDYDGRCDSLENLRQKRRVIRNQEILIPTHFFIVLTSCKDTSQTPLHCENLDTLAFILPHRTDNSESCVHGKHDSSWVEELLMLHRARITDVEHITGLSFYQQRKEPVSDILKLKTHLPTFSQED
Kind of data set: NTMP hydrolysis in matrix vesicles. It is filed as biochemical. To be noted: 0.1 mM, NTMP 0.1 mM, OD 405 nm. The procedure:
(§1) Increased chondrocyte PPi production, and PPi-generating NPP1 activity are linked with CPPD crystal deposition disease, common in aging and osteoarthritic cartilage. […] Its hydrolysis by endogenous enzyme (NPP1) from matrix vesicles (MVs), human chondrocytes or cartilage pieces results in elevated OD at 405 nm.
In order to test the ability of the NPP1 inhibitor APPCCl2P-α-S (isomer A) to inhibit NTMP hydrolysis in MVs, MVs at 2.6 mg/ml (final concentration) were incubated with 0.1 mM NTMP in 2-[(2-Hydroxy-1,1-bis(hydroxymethyl)ethyl)amino]ethanesulfonic acid (TES; Sigma catalog number T1375), pH 7.37, in the presence or absence of 0.1 mM of said NPP1 inhibitor for 0, 15′, 30′, 1, 2, 4, 8 hours at 37° C. At each time point the reaction was read at 405 nm.

For the next data set, the system named is cartilage pieces. In words: NTMP hydrolysis in cartilage pieces. Further details: species or system human. To be noted: 0.1 mM, NTMP 0.1 mM, OD 405 nm.
Source text: as §1
In order to test the ability of the NPP1 inhibitor to inhibit NTMP hydrolysis in cartilage pieces, 12 pieces of cartilage of a uniform diameter were weighed and placed in wells of a 96-well plate overnight in DMEM w/o phenol red with penicillin-streptomycin-glutamine (PSG). The pieces of cartilage were incubated with 0.1 mM NTMP in TES, pH 7.37, in the presence or absence of 0.1 mM of the NPP1 inhibitor for 0, 15′, 30′, 1, 2, 4, 6, 8 hours at 37° C. At each time point 200 μl were removed from each well and the reaction was read at 405 nm.

The subject of another data set is human chondrocyte cells. Kind of data set: Hydrolysis of extracellular ATP in the presence of human chondrocyte culture. In kind it is cell-based. To be noted: 100 μM each, 8 h, ATP alone 56%, without cells 18%. How it is done: In this study, the metabolic hydrolysis of ATP was evaluated. […] Following incubation, the samples were collected and heated at 80° C. for 15 min and extracted with chloroform, applied onto an anion exchange cartridge, and freeze-dried. The resulting residue was analyzed by HPLC.

Another data set addresses T3, Aβ40-Zn^2+ aggregates (Homo sapiens, UniProt P05067).
T3 construct: purchased GL-Biochem (Shanghai)
Kind of data set: TEM, size reduction of Aβ40-Zn^2+ aggregates. To be noted: 6 eq, 7 h; aggregates 100 nm to 2.5 μm before. The procedure:
(§2) TEM sample was prepared from 200 μM Aβ-M^2+ 1:1 solution (pH 7.4 or 6.6 for Aβ40-Zn^2+ or Aβ40-Cu^2+, respectively) incubated in a rotary shaker for 9 days at RT. A cloudy mixture with massive sediments was obtained. TEM samples were prepared by diluting the stock solutions with PBS to a concentration of 25 μM with or without APCPP-γ-S. In this way four samples were obtained: (i) 25 μM Aβ40-Cu^2+; (ii) 25 μM Aβ40-Cu^2+ containing 150 μM APCPP-γ-S; (iii) 25 μM Aβ40-Zn^2+; and (iv) 25 μM Aβ40-Zn^2+ containing 150 μm APCPP-γ-S. The mixtures were incubated in a rotary shaker for 7 h and after vortexing, a sample was transferred to a gold grid, for Aβ40-Cu^2+, or a copper grid for Aβ40-Zn^2+. The wet grid was left to dry at RT overnight.
(§3) To validate the DLS data indicating the efficiency of APCPP-γ-S, we monitored the dissolution of Aβ40-M^2+ aggregates in the presence of APCPP-γ-S by TEM. Aβ40-Cu^2+ and Aβ40-Zn^2+ 1:1 complexes were incubated for 9 days at RT, resulting in a significant sediment. Aβ40-Cu^2+ aggregates of 2.5 μm in diameter (FIG. 6A) and Aβ40-Zn^2+ aggregates of different sizes from 100 nm to 2.5 μm (FIG. 6C) were observed by TEM measurements. APCPP-γ-S (6 eq) was then added and the mixture was incubated for 7 h.

A further data set has as its target T4, Aβ40-Cu^2+ aggregates (Homo sapiens, UniProt P05067).
T4 construct: purchased GL-Biochem (Shanghai)
In words: TEM, size reduction of Aβ40-Cu^2+ aggregates. To be noted: 6 eq, 7 h; aggregates 2.5 μm before. The procedure: as §2, §3

T1 sequence (P05067 672-699 limits assumed, one chain of several): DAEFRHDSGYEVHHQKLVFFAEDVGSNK
T4 sequence (P05067 672-711): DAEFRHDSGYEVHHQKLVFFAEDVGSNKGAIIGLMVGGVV
T3 sequence (P05067 672-711 limits assumed): as the sequence (P05067 672-711) above

With `Nc1ncnc2c1ncn2[C@@H]1O[C@H](COP(=O)(O)OP(O)(O)=S)[C@@H](O)[C@H]1O` [ADP-β-S, adenosine 5′-[β-thio]diphosphate, reference compound], on Aβ28-Cu^+ complex, the “equivalents at which the spectrum resembled that of pure Aβ28” value was 5 eq. The “fold more stable in PC12 cells than parent nucleotide (GDP, ADP)” value in the data set on PC12 cells was determined as 3 fold. Also, in the data set with cortical neurons (Table 2, neuroprotection of primary neurons exposed to FeSO4, read-out: IC50), the IC50 (in general, the point on the concentration scale where inhibition reaches its midpoint) worked out at 1200 ± 7 nM.
As to `Nc1ncnc2c1ncn2[C@@H]1O[C@H](COP(O)(=S)OP(=O)(O)C(Cl)(Cl)P(=O)(O)O)[C@@H](O)[C@H]1O` (single isomer, unassigned) [APPCCl2P-α-S, adenosine 5′-[Pα-thio]-β,γ-(dichloromethylene)triphosphate], in data set [1], the “log K (Zn^2+)” value was 6.5 and the “times higher affinity to Zn^2+ ions as compared to ATP” value worked out at 50.
Regarding `Nc1ncnc2c1ncn2[C@@H]1O[C@H](COP(O)(=S)OP(=O)(O)C(Cl)(Cl)P(=O)(O)O)[C@@H](O)[C@H]1O` (single isomer, unassigned; isomer a) [APPCCl2P-α-S (isomer A), adenosine 5′-[Pα-thio]-β,γ-(dichloromethylene)triphosphate], the “inhibition of NTMP hydrolysis in MVs” value in [2] is reported as “inhibit the hydrolysis of NTMP”. Besides, the “inhibition of NTMP hydrolysis in cartilage pieces” value with cartilage pieces is recorded as “inhibit the hydrolysis of NTMP”. Moreover, the “degradation of ATP on co-application” value in the data set with human chondrocyte cells is on record as 22%.
As to `Nc1ncnc2c1ncn2[C@@H]1O[C@H](COP(=O)(O)CP(=O)(O)OP(O)(O)=S)[C@@H](O)[C@H]1O` [APCPP-γ-S, adenosine 5′-[Pγ-thio]-α,β-methylenetriphosphate], the results for the “aggregate size after addition” value on Aβ40-Zn^2+ aggregates and on Aβ40-Cu^2+ aggregates were “less than 500 nm” and “less than 250 nm”, respectively. The IC50 in the data set on cortical neurons (Cortical neurone, read-out: IC50 protection from damage caused by FeSO4) came to 40 nM.
